{"source": "patent US20230277538A1", "about": "“THERAPEUTICS FOR THE TREATMENT OF FSHD” (UCL BUSINESS LTD, priority 2020, published 2023)", "key": {"[1]": {"system": "necroptotic genes (Ripk1, Ripk3 and Mlk1) and DUX4-network genes (Tm7sf4, mDuxb1 and Wfdc3)", "assay": "mRNA expression of necroptotic and DUX4-network genes in treated Actal Cre-FLEx DUX4 mice", "format": "in vivo, mouse", "experimental": "Dabrafenib (30 mg/kg) was given by oral (p.o.) gavage to 4-5 week old Actal Cre-FLEx DUX4 animals 5 times/week for 4 weeks. Tamoxifen was intraperitoneally weakly injected (2 mg/kg). […] Expression of necroptotic genes (Ripk1, Ripk3 and Mlk1) and DUX4-network genes (Tm7sf4, mDuxb1 and Wfdc3) were measured.\nFor muscles, cryopreserved tissues were transferred in tube containing 1.4 mm ceramic beads (FastPrep, MP biomedicals, UK) plus 1 mL of Trizol (Thermo Fisher Scientific, Paisley, UK) and shaken at 10000 rpm for 40 s. Total RNAs from cells or tissue were extracted using Trizol (Thermo Fisher) according the manufacturer's protocol. The quantity of RNA was determined using a nanodrop ND-1000 spectrophotometer (Thermo Scientific, Wilmington, Del., USA). Reverse transcription was performed on 1 μg of total RNA in a 10 μL final volume (Roche Transcriptor First Strand cDNA Synthesis kit). Quantitative PCR (qPCR) was designed according to the MIQE standards. qPCRs were performed on a LightCycler 480 Real-Time PCR System (Roche) in a final volume of 9 with 0.2 μL of RT product, 0.4 μM each of forward and reverse primers (see Tables 2 and 3), and 4.5 μL of SYBRGreen Mastermix (Roche).\nDabrafenib (30 mg/kg) was administered by oral (p.o.) gavage to 4-5 week old animals 5 times/week for 4 weeks. Tamoxifen was intraperitoneally injected weakly (2 mg/kg)."}, "Caspase 3/7": {"system": "Caspase 3/7", "assay": "Caspase-Glo 3/7 Assay in iC2C12-DUX4 cells", "format": "cell-based, mouse", "conditions": "Z-Vad 30 μM or 50 μM, different concentrations of doxycycline", "procedure": "FIG. 9: Apoptosis is not involved in iC2C12-DUX4 death. (A) Cell viability on iC2C12-DUX4 myoblasts in the presence of different concentrations of DMSO induced a non-specific increase of cell survival. […] Caspase 3/7 activity was measured using the Caspase-Glo 3/7 Assay (Promega) according to the manufacturer's instructions.\nInducible iC2C12-Dux4 (Bosnakovski, 2008) were cultured in DMEM high glucose with GlutaMAX and no Sodium Pyruvate (Gibco), 20% fetal bovine serum, and 800 μg/mL G418 (Gibco). For myoblast experiments, iC2C12-Dux4 were seeded into white 96-well plates (3000 cells per well) in growth medium. After 24 h, DUX4 expression was induced by adding doxycycline (Sigma-Aldrich) at a final concentration of 50 to 1000 ng/mL. For myotubes experiments, iC2C12-Dux4 were seeded into white 96-well plates (1500 cells per well) in growth medium. After 48 h, cells were differentiated with DMEM, 2% horse serum and 10 μg/mL insulin. DUX4 expression was induced after 4 days of differentiation to not disturb myotube formation (Bosnakovski, 2008). […] Cell survival was determined by CellTiter-Glo luminescent cell viability assay (Promega), membrane permeability by CytoTox-Glo cytotoxicity assay (Promega) and caspase activation by Caspase-Glo 3/7 Assay (Promega) according to the manufacturer's instructions. Luminescence was read by a microplate reader Tecan."}, "iC2C12-DUX4 myoblasts": {"system": "iC2C12-DUX4 myoblasts", "assay": "Cell viability (ATP assay, CellTiter-Glo) of dox-induced iC2C12-DUX4 myoblasts with death inhibitors", "format": "cell-based, mouse", "conditions": "for increase in the number of viable cells: inhibitor present; for optimal dose from dose response: with or without doxycycline 200 ng/ml, 24 hours after dox induction", "procedure": "(A) Cell viability of iC2C12-DUX4 myoblasts at 48 h of induction without or with dox (200 ng/ml) and treatment with various concentrations of the pan-caspase inhibitor Z-VAD (μM). […] Ctrl: DMSO alone.\nFIG. 10: Role of necroptosis in the DUX4 mediated cell death. Several death inhibitors were added at different concentrations alone to iC2C12 myoblasts in presence or not of Doxycycline 200 ng/ml.\nFor myoblast experiments, iC2C12-Dux4 were seeded into white 96-well plates (3000 cells per well) in growth medium. After 24 h, DUX4 expression was induced by adding doxycycline (Sigma-Aldrich) at a final concentration of 50 to 1000 ng/mL. For myotubes experiments, iC2C12-Dux4 were seeded into white 96-well plates (1500 cells per well) in growth medium. After 48 h, cells were differentiated with DMEM, 2% horse serum and 10 μg/mL insulin. […] Inhibition of apoptosis and/or necroptosis was simultaneously realized to DUX4 induction for 24 h using 20 μM of pan-caspase inhibitor Z-VAD.fmk (Merk Chemicals), 30 μM Necrostatin-1, 3 μM GSK872, 0.2 Cyclosporin A (Cambridge Bioscience). Cell survival was determined by CellTiter-Glo luminescent cell viability assay (Promega), membrane permeability by CytoTox-Glo cytotoxicity assay (Promega) and caspase activation by Caspase-Glo 3/7 Assay (Promega) according to the manufacturer's instructions. Luminescence was read by a microplate reader Tecan.\nThe iC2C12-DUX4 viability was assessed for 2 different doses of dox and the results are expressed as the percentage of cells alive in the presence of the different compounds compared to the condition without them. Z-VAD was always added to eliminate any bias linked to caspases 3/7 activation/synergic effect."}, "iC2C12-DUX4 myotubes": {"system": "iC2C12-DUX4 myotubes", "assay": "cells", "format": "cell-based, mouse", "procedure": "FIG. 4: Ripk3 inhibition decreases DUX4-mediated cell death in iC2C12-DUX4 myotubes. (A) iC2C12-DUX4 viability in presence of dox 1000 ng/ml and treated with different doses of Z-VAD, Necrostatin-1 or GSK'872. (B) Cell viability in presence of dox 1000 ng/ml with the different compounds alone or in combination. Z: Z-vad (20 μM); N: necrostatin-1 (30 μM), N+: necrostatin-1 (90 μM), G: GSK'872 (2 μM); G+: GSK'872 (4 μM).\nInducible iC2C12-Dux4 (Bosnakovski, 2008) were cultured in DMEM high glucose with GlutaMAX and no Sodium Pyruvate (Gibco), 20% fetal bovine serum, and 800 μg/mL G418 (Gibco). For myoblast experiments, iC2C12-Dux4 were seeded into white 96-well plates (3000 cells per well) in growth medium. After 24 h, DUX4 expression was induced by adding doxycycline (Sigma-Aldrich) at a final concentration of 50 to 1000 ng/mL. For myotubes experiments, iC2C12-Dux4 were seeded into white 96-well plates (1500 cells per well) in growth medium. After 48 h, cells were differentiated with DMEM, 2% horse serum and 10 μg/mL insulin. DUX4 expression was induced after 4 days of differentiation to not disturb myotube formation (Bosnakovski, 2008). Inhibition of apoptosis and/or necroptosis was simultaneously realized to DUX4 induction for 24 h using 20 μM of pan-caspase inhibitor Z-VAD.fmk (Merk Chemicals), 30 μM Necrostatin-1, 3 μM GSK872, 0.2 Cyclosporin A (Cambridge Bioscience). Cell survival was determined by CellTiter-Glo luminescent cell viability assay (Promega), membrane permeability by CytoTox-Glo cytotoxicity assay (Promega) and caspase activation by Caspase-Glo 3/7 Assay (Promega) according to the manufacturer's instructions. Luminescence was read by a microplate reader Tecan.\nThe effects of the different inhibitors on iC2C12-DUX4 myotubes were investigated. Again, the results are expressed as the percentage of live cells in the presence of the different compounds compared to the control condition without. No effect of Z-VAD were observed arguing against a major role of caspases in DUX4-mediated toxicity (FIG. 4A). When the cells were cultivated with necrostatin-1 in the presence of dox (1000 ng/ml), necrostatin-1 concentrations […] 60 μM conferred a protection against cell death (up to 60%±6 of viable cells in presence of 60 μM necrostatin-1 compared to 39%±1 without, FIG. 4A), necrostatin-1 concentrations of 150 or 300 μM leading to up to 85%±2 viable cells (FIG. 4A). […] The different compounds were next added separately or together to iC2C12-DUX4 myotubes that were incubated with dox (1000 ng/ml). […] Indeed, at low (2 μM) or high (4 μM) concentration, GSK'872 increased cell viability by 2.1 fold (FIG. 4D). […] Ripk3 but also to a lesser extent Ripk1, participated in DUX4-mediated cell toxicity."}, "[2]": {"system": "Cre-inducible FLExDUX4 mice", "assay": "In vivo GSK'872 treatment of tamoxifen-induced Cre-inducible FLExDUX4 mice", "parameters": "species or system mouse", "conditions": "GSK'872 2 mg/kg for 5 days IP; tamoxifen 10 mg/kg for 2 days IP; mice killed at 7 weeks", "procedure": "Mice were killed at the age of 7 weeks. (A) Total body weight was measured at day 0 and 7. Y-axis represents the weight after tamoxifen at D7 relative to the weight before tamoxifen injection at DO. (BC) Weights of the tibialis anterior (TA) (B) and quadriceps (C) were measured at D7. (DE) Expression levels of 2 genes (Tm7sf4 (D) and DuxBl (E)) downstream of DUX4 were measured in the quadriceps. Y-axis represents arbitrary units relative to Psma2. • * P<0.05, **P<0.01, ***P<0.001, one-way ANOVA followed by a Tukey's multiple comparison test.\nThree-week-old animals were weighted 3 times a week, after weaning. The tamoxifen (MP Biomedicals) injections were realized according to Jones et al (Jones, 2018). Six-week-old mice were injected (IP) with Tamoxifen (TMX) on two consecutive days for a final concentration of 10 mg/kg. Following TMX injection, animals were daily weighed, and sacrificed after a week. Muscles were harvested and frozen in liquid nitrogen or liquid-nitrogen-cooled isopentane for further analysis."}, "[3]": {"conditions": "Mus musculus, Myotube, read-out: viable cells"}}, "note": "Residues, ends and D or L forms follow the SMILES beside them. *: point of attachment. Cbz = O=C(OCc1ccccc1)*; CH2F = FC*", "data": [{"smiles": "CC(C)(C)c1nc(-c2cccc(NS(=O)(=O)c3c(F)cccc3F)c2F)c(-c2ccnc(N)n2)s1", "note": "[dabrafenib, N-{3-[5-(2-aminopyrimidin-4-yl)-2-tert-butylthiazol-4-yl]-2-fluorophenyl}-2,6-difluorobenzenesulfonamide]", "values": [{"measurement": "mean expression of Ripk1, Ripk3, Mlk1, Tm7sf4, mDuxb1 and Wfdc3 relative to untreated control animals", "setting": "[1]; dabrafenib 30 mg/kg p.o. 5 times/week for 4 weeks, 4-5 week old animals, tamoxifen 2 mg/kg", "value": "decreased mean expression of almost all of these genes"}]}, {"smiles": "COC(=O)C[C@H](NC(=O)[C@H](C)NC(=O)[C@@H](NC(=O)OCc1ccccc1)C(C)C)C(=O)CF", "note": "[Z-VAD] (Cbz-Val-Ala-Asp(OMe)-CH2F)", "values": [{"measurement": "caspase 3/7 activity after DUX4 expression", "setting": "Caspase 3/7", "value": "correctly inhibited"}, {"measurement": "percentage of viable cells", "setting": "iC2C12-DUX4 myoblasts; iC2C12 myoblasts, addition of Z-Vad", "value": "did not modify the percentage of viable cells"}, {"measurement": "cell survival with and without Z-VAD", "setting": "iC2C12-DUX4 myoblasts; myoblasts, 200 ng/ml dox, different doses of Z-VAD", "value": "No change in cell survival"}, {"measurement": "cell survival", "setting": "iC2C12-DUX4 myotubes; iC2C12-DUX4 myotubes, Z-vad added in vitro", "value": "did not increase cell survival"}, {"measurement": "increase of cell survival", "setting": "iC2C12-DUX4 myotubes; myotubes, dox 1000 ng/ml, Z-VAD alone (20 μM)", "value": "10%±10"}, {"measurement": "effect on live cells", "setting": "iC2C12-DUX4 myotubes; myotubes, dox 1000 ng/ml, different doses of Z-VAD", "value": "No effect"}]}, {"smiles": "Nc1cccc2c(=O)[nH][nH]c(=O)c12.[Na]", "note": "[galavit, 3-aminophthalhydrazide monosodium salt]", "values": [{"measurement": "mean expression of Ripk1, Ripk3, Mlk1, Tm7sf4, mDuxb1 and Wfdc3 relative to untreated control animals", "setting": "[1]; galavit 4.5 mg/kg IP daily for 3 days, 7-8 week old males, tamoxifen 10 mg/kg day 0 and 1", "value": "decreased mean expression of almost all of these genes"}]}, {"smiles": "CN1C(=O)C(Cc2c[nH]c3ccccc23)NC1=S", "note": "(stereo not shown) [necrostatin-1, 5-(1H-indol-3-ylmethyl)-3-methyl-2-sulfanylideneimidazolidin-4-one]", "values": [{"measurement": "increase in the number of viable cells", "setting": "iC2C12-DUX4 myoblasts; iC2C12 myoblasts", "value": 20, "unit": "%"}, {"measurement": "increase of cells survival", "setting": "iC2C12-DUX4 myoblasts; myoblasts, 200 ng/ml dox, necrostatin-1 present, Z-VAD always added", "value": "34%±20"}, {"measurement": "optimal dose from dose response", "setting": "iC2C12-DUX4 myoblasts; myoblasts", "value": 30, "unit": "µM"}, {"measurement": "viability at 60 µM", "setting": "iC2C12-DUX4 myotubes; [3]", "value": 60, "unit": "%"}]}, {"smiles": "CC(C)S(=O)(=O)c1ccc2nccc(Nc3ccc4scnc4c3)c2c1", "note": "[GSK'872, Benzothiazol-5-yl-[6-(propane-2-sulfonyl)-quinolin-4-yl]-amine]", "values": [{"measurement": "increase in the number of viable cells", "setting": "iC2C12-DUX4 myoblasts; iC2C12 myoblasts", "value": 10, "unit": "%"}, {"measurement": "optimal dose from dose response", "setting": "iC2C12-DUX4 myoblasts; myoblasts", "value": 3, "unit": "µM"}, {"measurement": "viability at 3 µM", "setting": "iC2C12-DUX4 myotubes; [3]", "value": 67, "unit": "%"}, {"measurement": "viability at 6 µM", "setting": "iC2C12-DUX4 myotubes; [3]", "value": 77, "unit": "%"}, {"measurement": "increase of the number of viable cells", "setting": "iC2C12-DUX4 myotubes; iC2C12-DUX4 myotubes, GSK'872 in combination with Z-Vad", "value": 2, "unit": "fold"}, {"measurement": "increase of cell viability", "setting": "iC2C12-DUX4 myotubes; myotubes, dox 1000 ng/ml, GSK'872 low (2 μM) or high (4 μM) concentration", "value": 2.1, "unit": "fold"}, {"measurement": "DUX4-mediated cell death in vivo", "setting": "[2]", "value": "decreased DUX4-mediated cell death in vivo"}]}]}
